Measurements reported in US9980972B2, “Rho kinase inhibitors for use in treating familial amyotrophic lateral sclerosis” (GEORG-AUGUST-UNIVERSITÄT GÖTTINGEN STIFTUNG ÖFFENTLICHEN …, priority 2012, dated 2018).

Legend:
[1] = test system: sciatic nerve axons of SOD1 G93A mice; assay: Sciatic nerve axon numbers (axonal degeneration); assay type: in vivo, mouse; settings: day 100, female, Fas30 vs transgenic vehicle
Procedure: Sciatic nerves were removed separately and postfixed for 24 h in 4% paraformaldehyde. […] After three washing steps the nerves were embedded in […] and Propylenoxide with a ratio of first 1:1 and then 2:1, each for 35 min. Before putting into a flat mould for drying and harding, Propylenoxide had to evaporate under a hood for 1 h. The sciatic nerves embedded in […] blocks were cut with a Microtom (Leica Ultracut) into semithin sections (380 nm) and were collected on gelatine coated glass slides. […] After washing in distilled water, slices were dried and mounted in […] cuts of sciatic nerve axons were evaluated from light microscopy images for axonal numbers and axoplasm size with the semi-automated counting and size measuring tool of the Image J software. In the d50 treatment group analyzed at […], a total of 17 female mice were counted from vehicle (5), Fas30 (7), and wildtype (5).

[2] = test system: SOD1 G93A mouse model of ALS; assay: Survival (age at death) in SOD1 G93A mouse model of ALS; assay type: in vivo; settings: for survival proportions over time: non-differentiated by gender
Excerpt: High-copy B6SJL-Tg(SOD1*G93A)1Gur/J were obtained from Jackson Labs (Stock Number 002726; Bar Harbor, USA) that had originally been produced by Gurney et al. (Gurney, Pu et al. 1994). The colony was maintained by crossing C57BL/6 males harboring the transgene with wild-type SJL females. To verify presence of the transgene in the F1 progeny, tail biopsies were collected from 14-day-old pups and genotyped using PCR. At the age of 35-45 days mice were moved to the testing facility to acclimate to the new environment with a 12-h light/dark cycle before being assigned to a study.
At 50 days (presymptomatic, d50) or 80 days of age (symptomatic, d80) mice were separated into Fasudil-30 (Fas30)- and Fasudil-100 (Fas100)-Treatment or Vehicle Control (Veh) groups. Prior to any treatment, groups were constituted so as to minimize between-group variability by using the following criteria. Groups were balanced with respect to gender and body weight within gender. In addition, groups were age-matched and littermate-matched. […] The study was observer-blinded.
To reach sufficient CSF levels of Fasudil the inventors administered Fasudil (LC Labs, Woburn, USA; product number F-4660) at a low concentration of […] (Fas30) or at a high concentration of 50 mg (Fas100) in 100 ml drinking water. Control groups received the respective amount of isotonic drinking water termed as vehicle (Veh).
Chronic oral treatment with a low dose of Fasudil (F30) or a high dose of Fasudil (F100) was started either presymptomatically at day 50 or symptomatically at day 80 and continued until death.
Survival. Date and cause of death were recorded for each mouse. For humane reasons, animals are closely monitored and sacrificed as moribund prior to actual death using criteria for severe moribundity. To determine duration of survival reliably and humanely, the moribund state, defined as the inability of mice to right themselves 30 seconds after being placed on a side (a neurological score of 4) was used. The moribund mice were scored as “dead”, and were euthanized using carbon dioxide.
The data were then analyzed using Kaplan-Meier survival fit analysis with the Log-Rank and Wilcoxon tests for statistical significance. Cox proportional hazards analysis was also performed to determine hazard ratios and test for statistical significance of their differences using the Effect Likelihood Chi Square test. Statistical analyses were performed using Statistica 9.1 (StatSoft, Hamburg, Germany). P-values less than 0.05 were taken to be statistically significant.
The criteria to terminate the therapy study (later referred to as time of death) were fulfilled if the animals had reached the terminal neurological scoring or had lost a defined percentage of the maximal body weight. This time point then reflects the survival time of the animals whereas disease duration was measured from onset of disease until time of death.

O=S(=O)(c1cccc2cnccc12)N1CCCNCC1 [Fasudil, 1-(5-isoquinolinesulfonyl)homopiperazine]
axonal number by axoplasmal diameter size range [1]: no significant differences
total number of preserved axons in the sciatic nerve [1]: comparable axon numbers
average survival ([2]; female, presymptomatic (d50) treatment, Fas30 (30 mg/kg/day in drinking water), control 130.4 days): 141.8 days
survival ([2]; male, presymptomatic (d50), Fas30): trend in prolongation of survival
survival proportions over time ([2]; presymptomatic (d50), Fas30): profited significantly from the treatment
survival proportions over time ([2]; symptomatic (d80), Fas30): did not show a statistically significant difference
survival proportions over time ([2]; symptomatic (d80), Fas100 (100 mg/kg/day)): did not show a statistically significant difference
survival effect ([2]; presymptomatic (d50), Fas100, compared with Fas30): less prominent
survival ([2]; symptomatic treatment start, female or male group): not able to prolong survival
